From ChEMBL document CHEMBL3769383, “Cefsulodin Inspired Potent and Selective Inhibitors of mPTPB, a Virulent Phosphatase from Mycobacterium tuberculosis” (ACS Med Chem Lett, 2015)

Experiments:
[1] = Inhibition of Mycobacterium tuberculosis PTPB expressed in Escherichia coli BL21/DE3 cells using pNPP as substrate after 5 mins by spectrophotometry
BL21-DE3 = test: Potency index, ratio of SPAA IC50 to compound IC50 for Mycobacterium tuberculosis PTPB expressed in Escherichia coli BL21/DE3 cells

## O=C(Nc1ccccc1)C(c1ccccc1)S(=O)(=O)O (racemic)
[1]
  IC50: 1000 nM
BL21-DE3
  Ratio IC50: 180
